Test results: patent US20050004126A1 (priority 2001, published 2005)
“And” between values parts separate entries of the source, which are not always exact repeats. Identical values can stand only once. Counter-ions that a name gives are not always drawn. Like-named read-outs stand apart in the source and are kept apart here.

How the values were obtained:
[1] = target: T1, MMP-1FL (full-length interstitial collagenase) (Homo sapiens, UniProt P03956); test: Thiopeptolide hydrolysis assay, MMP-1; type: biochemical; conditions: read-out: MMP01 IC50
T1 sequence (P03956 100-469): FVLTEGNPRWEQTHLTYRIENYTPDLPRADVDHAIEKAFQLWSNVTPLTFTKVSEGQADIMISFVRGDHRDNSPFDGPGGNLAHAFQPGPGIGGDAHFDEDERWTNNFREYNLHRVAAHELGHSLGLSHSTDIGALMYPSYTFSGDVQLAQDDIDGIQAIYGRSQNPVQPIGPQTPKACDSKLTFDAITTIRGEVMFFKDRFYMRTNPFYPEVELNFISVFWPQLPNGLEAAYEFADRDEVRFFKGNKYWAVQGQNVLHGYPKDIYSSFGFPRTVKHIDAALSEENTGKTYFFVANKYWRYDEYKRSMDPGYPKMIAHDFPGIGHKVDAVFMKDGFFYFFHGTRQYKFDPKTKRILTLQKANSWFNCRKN

[2] = target: MMP-3CD (catalytic domain of stromelysin) (Homo sapiens, UniProt P08254); test: Thiopeptolide hydrolysis assay, MMP-3; type: biochemical; conditions: read-out: MMP03 IC50;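 note: inhibition of thiopeptolide substrate (100 µM) cleavage by the MMP-3 catalytic domain, detected with DTNB at pH 6.0 with CaCl2, hydrolysis compared against runs lacking inhibitor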
Experimental: They measure the amount by which a test compound reduces the hydrolysis of a thiopeptolide substrate caused by a matrix metalloproteinase enzyme.
Thiopeptolide substrates show virtually no decomposition or hydrolysis in the absence of a matrix metalloproteinase enzyme. A typical thiopeptolide substrate commonly utilized for assays is Ac-Pro-Leu-Gly-thioester-Leu-Leu-Gly-OEt. A 100 μL assay mixture will contain 50 mM of 2-morpholinoethane sulfonic acid monohydrate (MES, pH 6.0) 10 mM CaCl2, 100 μM thiopeptolide substrate, and 1 mM 5,5′-dithio-bis-(2-nitro-benzoic acid) (DTNB). […] Assays are carried out with and without matrix metalloproteinase inhibitor compounds, and the amount of hydrolysis is compared for a determination of inhibitory activity of the test compounds.

[3] = target: MMP-13CD (catalytic domain of collagenase 3) (Homo sapiens, UniProt P45452); test: Thiopeptolide hydrolysis assay, MMP-13;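 note: inhibition of enzymatic thiopeptolide substrate cleavage (100 µM) in pH 6.0 MES buffer with CaCl2 and DTNB, comparing hydrolysis with versus without inhibitor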

Chain of MMP-3CD (catalytic domain of stromelysin) (P08254 100-272 limits assumed): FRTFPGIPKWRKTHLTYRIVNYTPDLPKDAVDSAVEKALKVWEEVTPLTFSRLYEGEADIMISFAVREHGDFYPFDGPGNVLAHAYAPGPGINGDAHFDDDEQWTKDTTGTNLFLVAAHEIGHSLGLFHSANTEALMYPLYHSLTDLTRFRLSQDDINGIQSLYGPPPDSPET

IC50 ([1]; Table II)	IC50 ([2]; Table II)	IC50 ([3]; MMP13 IC50 (nM), Table II)	IC50 ([1]; Table 1b)	IC50 ([3]; MMP13 IC50 (μM), Table 1b)	IC50 ([2]; Table 1b)	Compound
> 100 µM	76 µM	385 nM	–	–	–	COc1cccc(CNC(=O)c2cccc(C(=O)NCc3ccc(C)cc3)c2)c1
> 100 µM	> 30 µM	2300 nM	–	–	–	O=C(OCc1ccccc1)c1cccc(C(=O)OCc2ccccc2)c1 [Isophthalic acid dibenzyl ester]
–	–	–	> 30 µM	4.6 nM	–	Cc1c(=O)n(Cc2ccccc2)c(=O)n2cc(C(=O)NCc3ccc4nsnc4c3)sc12
> 100 µM	> 100 µM	44 nM	–	–	–	COc1cccc(CNC(=O)c2cccc(C(=O)OCc3ccc(C(=O)O)cc3)c2)c1
> 100 µM	> 100 µM	77 nM	–	–	–	COc1cccc(CNC(=O)c2cccc(C(=O)NCc3ccc(C(=O)O)cc3)c2)c1
> 100 µM	51 µM	1080 nM	–	–	–	COc1ccc(COC(=O)c2cccc(C(=O)OCc3ccc(OC)cc3)c2)cc1 [Isophthalic acid bis-(4-methoxy-benzyl) ester]
–	–	–	> 100 µM	18 nM	18 µM	COC(=O)c1ccc(Cn2c(=O)c(C)c3sc(C(=O)NCc4ccc(F)cc4)cn3c2=O)cc1C
–	–	–	> 100 µM	2.2 nM	68 µM	Cc1c(=O)n(Cc2ccc(C(=O)O)cc2)c(=O)n2cc(C(=O)NCc3ccc(F)cc3)sc12
> 100 µM	20 µM	2300 nM	–	–	–	O=C(NCc1cccc(Cl)c1)c1cccc(C(=O)NCc2cccc(Cl)c2)c1 [N,N′-Bis-(3-chloro-benzyl)-isophthalamide]
> 100 µM	27 µM	1450 nM	–	–	–	CCCOc1ccc(C(=O)NCc2ccc3c(c2)OCO3)cc1C(=O)NCc1ccc2c(c1)OCO2
71 µM	–	3750 nM	–	–	–	CC(C)Oc1ccc(C(=O)NCc2ccc3c(c2)OCO3)cc1C(=O)NCc1ccc2c(c1)OCO2
–	–	–	> 100 µM	25 nM	12 µM	COc1ccc(CNC(=O)c2cn3c(=O)n(Cc4ccccc4)c(=O)c(C)c3s2)cc1F
> 100 µM	> 100 µM	280 nM	–	–	–	COc1ccc(CNC(=O)c2ccc(OC)c(C(=O)NCc3ccc(OC)cc3)c2)cc1
> 100 µM	> 100 µM	1000 nM and 2740 nM	–	–	–	COc1ccc(CNC(=O)c2cccc(C(=O)NCc3ccc(OC)cc3)c2)cc1 [N,N′-Bis-(4-methoxy-benzyl)-isophthalamide]
–	–	–	> 30 µM	6700 nM	> 30 µM	O=C(NCc1ccccc1)c1cn2c(=O)n(C(=O)c3ccccc3)c(=O)cc2s1
> 100 µM	73 µM	1100 nM	–	–	–	Nc1cc(C(=O)OCc2ccccc2)cc(C(=O)OCc2ccccc2)c1 [5-Amino-isophthalic acid dibenzyl ester]
> 100 µM	–	7800 nM	–	–	–	O=C(Nc1cccc(CO)c1)c1cccc(C(=O)Nc2cccc(CO)c2)c1 [N,N′-Bis-(3-hydroxymethyl-phenyl)-isophthalamide]

The remaining lines, values behind:

Compound	IC50 ([1]; Table II)	IC50 ([2]; Table II)	IC50 ([3]; MMP13 IC50 (nM), Table II)	IC50 ([1]; Table 1b)	IC50 ([3]; MMP13 IC50 (μM), Table 1b)	IC50 ([2]; Table 1b)
COC(=O)c1ccc(Cn2c(=O)c(C)c3sc(C(=O)NCc4ccc(F)cc4)cn3c2=O)cc1Cl	–	–	–	> 30 µM	240 nM	> 30 µM
COc1cccc(CNC(=O)c2cccc(C(=O)NCc3ccncc3)c2)c1	> 100 µM	> 100 µM	1400 nM	–	–	–
Cc1c(=O)n(Cc2ccccc2)c(=O)n2cc(C(=O)NCc3cccnc3)sc12	–	–	–	> 100 µM	225 nM	> 30 µM
Cc1c(=O)n(Cc2ccc(C(=O)O)cc2)c(=O)n2cc(C(=O)NCc3ccc(F)cc3)sc12 [Sodium Salt]	–	–	–	–	2 nM	55.5 µM
Cc1c(=O)n(Cc2nccs2)c(=O)n2cc(C(=O)NCc3ccc(F)cc3)sc12 [hydrochloride]	–	–	–	> 100 µM	530 nM	> 30 µM
Cc1c(=O)n(Cc2ccccc2)c(=O)n2cc(C(=O)NCc3ccccc3)sc12	–	–	–	> 100 µM	94 nM	51 µM
Cc1c(=O)n(Cc2ccccc2)c(=O)n2cc(C(=O)NCc3ccc(Cl)c(Cl)c3)sc12	–	–	–	> 30 µM	265 nM	20 µM
Cc1c(=O)n(Cc2ccc(C(=O)N3CCOCC3)cc2)c(=O)n2cc(C(=O)NCc3ccncc3)sc12 [hydrochloride]	–	–	–	> 100 µM	37 nM	> 100 µM
COc1ccc(CNC(=O)c2cn3c(=O)n(Cc4ccc(C(=O)OCCN(C)C)cc4)c(=O)c(C)c3s2)cc1 [hydrochloride]	–	–	–	> 30 µM	45.5 nM	> 100 µM
COc1ccc(CNC(=O)c2cn3c(=O)n(Cc4ccccc4)c(=O)c(C=O)c3s2)cc1	–	–	–	> 100 µM	22.4 nM	11 µM
COc1ccc(C(=O)NCc2ccccc2)cc1C(=O)NCc1ccccc1 [N,N′-Dibenzyl-4-methoxy-isophthalamide]	> 100 µM	> 100 µM	1800 nM and 1100 nM	–	–	–
